Experiments:
[1] = test system: U23674 cells; assay: Four-arm orthotropic allograft study, survival; type: in vivo, mouse; conditions: 50 mg/kg OSI-906, 150 mg/kg GDC-0941, oral gavage; compared to vehicle and other arms
Procedure: This engraftment was performed after damaging the right leg via cardiotoxin as previously described. Treatment commenced two days after engraftment. Dosing schedule was once daily by oral gavage up to day 5, at which time dosing was performed every other day. The endpoint for the study and survival analysis was tumor volume=1.4 cc.

[2] = test system: DIPG neurospheres; assay: cells; conditions: for viability at 10 µM: read-out: cell viability (cytocidal)
Procedure: Primary cultures of DIPG neurospheres were added to 384 well plates pre-plated with 60 known drugs in an increasing gradient of concentrations. […] To complete this drug screen, primary cultures of nestin […] 53 deficient DIPG neurospheres were added to plates with 60 known drug samples in an increasing gradient of concentrations.

[3] = test system: human patient-derived xenografts; assay: Xenograft-derived chemical screen (Supplemental Table 3); type: cell-based
Procedure: Three chemical screens were applied to the U23674 primary tumor cell culture. […] The target inhibition profile is a quantified description of the inhibitory properties of the compound on the numerous protein targets preset on the PPTI screen.
To screen the chemical agents, cell cultures were plated in 384 well plates at a seeding density of 2000 cells per well over graded concentrations of the numerous compounds. The chemical concentrations were between 10 nM and […] depending on the activity range of the compounds. The cells were incubated in DMEM supplemented with 1% penicillin streptomycin, and 10% fetal bovine serum for 72 hours. Chemical sensitivity was determined by an MTS cell viability assay after the 72 hour incubation period. The sensitivity responses at the different concentrations were used to determine the chemical IC50 using a hill curve fitting algorithm with variable hill slope coefficients.

[4] = test system: DIPG neurospheres; assay: Cellular viability assay (CellTiter-Glo Luminescent Cell Viability Assay); type: cell-based, mouse; conditions: 48 hours
Procedure: (§1) A bromodeoxyuridine (BrdU) based cell proliferation ELISA assay kit (Roche) was used for proliferation and processed according to the manufacturer's protocol. […] Viability was measured with CellTiter-Glo Luminescent Cell Viability Assay (# G7572, Promega) per manufacturer's protocol, luminescence values were obtained using Turner Biosystems Modulus Microplate luminometer (model 9300-062). All values are given as mean+/−SD of at least 3 independent experiments.

[5] = test system: DIPG-bearing mice; type: in vivo
Procedure: All experiments were performed under the Institutional Animal Care and Use Committee and Institutional Review Board of Duke University approved protocol (A239-10-9 and A214-13-8). Mice were maintained under barrier conditions. Nestin tv-a (Ntv-a) p53^fl/fl mice were injected with DF1 cells expressing RCAS-PDGF-B+RCAS-Cre as described above. Three weeks post injection; […]. Mice were treated with 25 mg/kg BID for 6 doses. Loss of 25% of body weight, lethargy, head tilt, or seizure development was used as euthanasia criteria during the treatment window. Four hours after completion of the 6th dose, treated animals were euthanized and tumor tissue was extracted as described above.
Tumor samples embedded in paraffin were then sectioned on a Leica RM2235 microtome at […] thickness. Immunohistochemistry was performed using Discovery XT (Ventana Medical Systems). Sections were immunostained for cleaved caspase 3 (Asp175) (Cell Signaling #9661) and anti-phospho-histone H3 (Ser10) (Millipore 06-570) to allow for evaluation of apoptosis and proliferation, respectively.
Image analysis was completed using MetaMorph 6.1 software (Universal Imaging Corp.; Downingtown, Pa.) to quantify immunostaining on previously imaged sections for each injected animal. These images were thresholded using the HSI color representation method in the Set Color Threshold window. This method has previously been validated by Maximova et. al.. This is a multidimensional evaluation of the hue, saturation, and intensity of each individual pixel making up an image with a range from 0-255. Once color thresholds had been established that were able to define all nucleated cells and only positively labeled cells, each of the ten images per injected animal were quantified for (per 40× high powered field): total nucleated cell area, total nucleated cell count, total positive cell area, total positive cell count. […] The averages for each animal of each of these parameters were then transferred to GraphPad Prism 5 software (GraphPad Software, San Diego, Calif.) where a Mann-Whitney-U t-test was performed on each analyzed parameter to determine statistical significance.

[6] = test system: DIPG neurospheres; assay: BrdU based cell proliferation ELISA assay; parameters: species or system mouse
Procedure: as §1

[7] = test system: AKT; assay: Western blot analysis of phospho-Akt after IGF-1 stimulation; type: cell-based, mouse; conditions: 4 hours of drug exposure at 1 μM and higher
Procedure: (§2) IGF-1R ligand was added at 10 nmol/L concentration for 15 minutes prior to cell collection. […] Protein concentrations of total cell lysates or total tissue lysates were determined using BCA assay kit (Pierce). Lysates were resolved by SDS-PAGE (Invitrogen) and transferred to nitrocellulose membranes (Bio-Rad Laboratories). […] All antibodies were purchased from Cell Signaling except Actin, which was purchased from Santa Cruz Biotech. Membranes were incubated with the appropriate labeled secondary antibodies, and protein was visualized and quantified using Li-Cor Biosciences Odyssey Infrared Imaging system (Li-Cor Biosciences). Inhibition was calculated by comparing the ratio of phosphorylation signals in untreated versus treated samples after normalization to actin. All values are given as mean+/−SD of at least 3 independent experiments.

[8] = target: T1, IGF-1R (Mus musculus, UniProt Q60751); assay: Western blot analysis of phospho-IGF-1R after IGF-1 stimulation; type: cell-based; conditions: 4 hours of drug exposure at 1 μM and higher
T1 construct: endogenous in cells; host or cells: murine DIPG neurospheres (Ntv-a p53 deficient, PDGF-B driven)
T1 sequence (Q60751 31-1373): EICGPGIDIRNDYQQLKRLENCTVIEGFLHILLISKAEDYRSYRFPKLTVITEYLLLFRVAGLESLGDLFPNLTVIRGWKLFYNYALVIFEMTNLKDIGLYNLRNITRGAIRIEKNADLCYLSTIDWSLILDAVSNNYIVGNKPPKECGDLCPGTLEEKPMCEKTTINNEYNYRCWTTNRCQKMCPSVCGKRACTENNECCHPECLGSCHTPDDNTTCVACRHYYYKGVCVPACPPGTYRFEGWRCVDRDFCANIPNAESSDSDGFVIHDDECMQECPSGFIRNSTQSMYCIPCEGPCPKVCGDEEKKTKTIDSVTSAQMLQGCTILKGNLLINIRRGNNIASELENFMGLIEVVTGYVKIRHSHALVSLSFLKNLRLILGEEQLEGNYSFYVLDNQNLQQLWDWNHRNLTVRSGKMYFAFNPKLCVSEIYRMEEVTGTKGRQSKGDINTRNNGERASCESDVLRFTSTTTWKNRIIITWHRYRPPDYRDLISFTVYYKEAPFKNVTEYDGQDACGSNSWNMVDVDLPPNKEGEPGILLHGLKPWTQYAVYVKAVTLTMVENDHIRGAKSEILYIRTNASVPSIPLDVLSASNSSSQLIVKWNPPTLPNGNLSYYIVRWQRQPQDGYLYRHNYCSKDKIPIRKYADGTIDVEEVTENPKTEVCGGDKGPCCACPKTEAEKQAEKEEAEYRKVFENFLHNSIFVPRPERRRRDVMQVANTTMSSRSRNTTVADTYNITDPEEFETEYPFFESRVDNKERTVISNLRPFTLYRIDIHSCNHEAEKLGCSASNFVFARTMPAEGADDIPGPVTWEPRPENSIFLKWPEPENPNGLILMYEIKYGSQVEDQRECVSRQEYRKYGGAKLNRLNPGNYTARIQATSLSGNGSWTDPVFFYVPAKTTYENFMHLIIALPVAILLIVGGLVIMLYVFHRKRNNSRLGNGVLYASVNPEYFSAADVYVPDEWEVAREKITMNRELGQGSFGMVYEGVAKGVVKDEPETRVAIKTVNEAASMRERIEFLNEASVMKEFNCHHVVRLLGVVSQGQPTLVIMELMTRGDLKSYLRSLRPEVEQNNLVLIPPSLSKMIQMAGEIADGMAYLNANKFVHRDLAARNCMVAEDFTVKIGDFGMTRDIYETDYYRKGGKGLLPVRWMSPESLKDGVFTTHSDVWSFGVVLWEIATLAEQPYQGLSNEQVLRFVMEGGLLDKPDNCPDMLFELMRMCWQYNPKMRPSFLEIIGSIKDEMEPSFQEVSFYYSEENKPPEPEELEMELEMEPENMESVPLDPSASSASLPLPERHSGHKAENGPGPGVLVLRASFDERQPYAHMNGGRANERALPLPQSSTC
Procedure: as §2

[9] = 48 h, read-out: In Vitro Absolute IC50

SMILES: CS(=O)(=O)N1CCN(Cc2cc3nc(-c4cccc5[nH]ncc45)nc(N4CCOCC4)c3s2)CC1 [GDC-0941]
- survival of mice (endpoint tumor volume 1.4 cc) [1]: no better than survival of mice only treated with vehicle

SMILES: C[C@@]1(C(=O)Nc2ccc(F)nc2)CCCN1c1nc(Nc2cc(C3CC3)n[nH]2)c2cccn2n1 [BMS-754807]
- IC50 [2, 9]: 97.4 nM
- IC50 ([2]; Mus musculus, read-out: in vitro IC50 in the high throughput drug screen): 90 nM
- viability at 10 µM [2]: < 15%
- IC50 ([3]; Homo sapiens, read-out: IC50 Value): 1730 nM
- concentration giving significant reduction of viability [4]: ≥ 0.1 µM
- apoptosis, cleaved caspase 3 positive cells ([5]; 25 mg/kg BID for 6 doses, intraperitoneal, mean, p=0.0435 vs vehicle): 1.063+/−0.1925 percentage of cell per high powered filed
- DIPG proliferation, phosphorylated histone-3 (serine 10) positive cells ([5]; 25 mg/kg BID for 6 doses, intraperitoneal, mean, p=0.8421 vs vehicle): 9.632+/−2.827 percentage of cell per high powered filed
- blood brain barrier crossing ([5]; mouse, in vivo): able to cross the blood brain barrier
- tolerability in mice undergoing treatment ([5]; mouse, in vivo): well tolerated

SMILES: C[C@]1(O)C[C@@H](c2nc(-c3ccc4ccc(-c5ccccc5)nc4c3)c3c(N)nccn32)C1 [OSI-906]
- IC50 [2, 9]: 1740 nM
- viability at 10 µM [2]: < 15%
- IC50 Value ([3]; 60 agent PPTI screen): >conc tested
- concentration giving significant inhibition of proliferation [6]: ≥ 1 µM
- IC50 ([6]; Mus musculus, 48 hours, BrdU assay): 2500 nM
- reduction in pAKT expression [7]: 69%
- concentration giving significant reduction of viability [4]: ≥ 1 µM
- IC50 ([4]; Mus musculus, CellTiter-Glo, read-out: IC50, viability / cytotoxic effects): 2400 nM
- reduction in pIGF-1R [8]: 73%
- survival of mice (endpoint tumor volume 1.4 cc) [1]: no better than survival of mice only treated with vehicle

From patent US20150269307A1, “TARGET INHIBITION MAP SYSTEM FOR COMBINATION THERAPY DESIGN AND METHODS OF USING SAME” (Texas Tech University System, priority 2014, published 2015)
